Test results published in article PMC3266722 (Journal of Medicinal Chemistry, 2011).

How the values were obtained:
[1] = target: T1, hA1AR (Homo sapiens, UniProt P30542); settings: percent inhibition of specific radioligand binding at 10 μM; ref [11]; cited from earlier work
T1 sequence (P30542 1-326): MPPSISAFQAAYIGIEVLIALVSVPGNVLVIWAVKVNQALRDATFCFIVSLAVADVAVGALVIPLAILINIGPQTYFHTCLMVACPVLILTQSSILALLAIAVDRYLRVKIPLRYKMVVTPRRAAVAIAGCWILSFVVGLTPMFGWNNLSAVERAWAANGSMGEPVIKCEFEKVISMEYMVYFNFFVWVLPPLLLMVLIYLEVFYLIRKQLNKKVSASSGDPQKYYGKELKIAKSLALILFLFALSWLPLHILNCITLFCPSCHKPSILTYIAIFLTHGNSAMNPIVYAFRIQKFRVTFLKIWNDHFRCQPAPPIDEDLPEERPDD

[2] = target: T2, hA2AAR (Homo sapiens, UniProt P29274); settings: percent inhibition of specific radioligand binding at 10 μM; ref [11]; cited from earlier work
[3] = target: T2, hA2AAR; settings: compared to the standard CGS21680; cited from earlier work
[4] = target: T3, hA2BAR (Homo sapiens, UniProt P29275); settings: read-out: EC50, cyclic AMP accumulation at hA2BAR; CHO cells; cited from earlier work
T3 sequence (P29275 1-332): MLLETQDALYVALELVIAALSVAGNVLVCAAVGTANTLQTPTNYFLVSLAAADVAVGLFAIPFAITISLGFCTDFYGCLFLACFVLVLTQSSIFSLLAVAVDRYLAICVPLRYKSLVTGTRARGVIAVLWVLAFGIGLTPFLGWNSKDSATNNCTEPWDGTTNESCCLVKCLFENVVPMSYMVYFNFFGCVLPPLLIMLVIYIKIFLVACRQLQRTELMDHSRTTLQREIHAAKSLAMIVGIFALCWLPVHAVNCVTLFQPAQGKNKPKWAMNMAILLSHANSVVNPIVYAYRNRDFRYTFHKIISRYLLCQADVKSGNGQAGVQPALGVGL

[5] = target: T2, hA2AAR; experiment: Radioligand binding assay at human A2A receptor; settings: ratio of Ki values

T2 sequence (P29274 whole entry): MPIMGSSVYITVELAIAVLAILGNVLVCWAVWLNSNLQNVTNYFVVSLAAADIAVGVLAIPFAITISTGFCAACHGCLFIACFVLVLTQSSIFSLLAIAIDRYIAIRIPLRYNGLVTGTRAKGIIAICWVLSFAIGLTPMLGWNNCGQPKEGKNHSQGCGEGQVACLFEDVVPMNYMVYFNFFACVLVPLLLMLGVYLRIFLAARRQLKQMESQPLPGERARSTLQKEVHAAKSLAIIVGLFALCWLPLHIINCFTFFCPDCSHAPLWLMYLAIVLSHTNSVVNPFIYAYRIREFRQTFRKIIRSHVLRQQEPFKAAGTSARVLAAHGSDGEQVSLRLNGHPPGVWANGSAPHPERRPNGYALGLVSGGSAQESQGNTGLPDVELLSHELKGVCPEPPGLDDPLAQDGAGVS

| decrease of hA2AAR binding affinity in comparison to 4g [5] | Compound | Affinity (% inhibition) hA1 [1] | Affinity (% inhibition) hA2A [2] | agonist efficacy at hA2AAR [3] | EC50 [4] |
| --- | --- | --- | --- | --- | --- |
|  | CCCC/C=C/c1nc2c(N)ncnc2n1[C@@H]1SCC(O)C1O (stereo in doubt) [Compound 4r, (−)-(2R,3S,4R)-2-(6-Amino-8-(hex-1-enyl)-9H-purine-9-yl)-tetrahydrothiophene-3,4-diol] | 3.7 ± 2.9% | 22.8 ± 6.4% |  |  |
|  | CCCCC#Cc1nc2c(N)ncnc2n1[C@@H]1SCC(O)C1O (stereo in doubt) [Compound 4o, (−)-(2R,3S,4R)-2-(6-Amino-8-(hex-1-ynyl)-9H-purine-9-yl)-tetrahydrothiophene-3,4-diol] | 49.3 ± 4.9% | 46.5 ± 4.3% |  |  |
|  | CCCC/C=C/c1nc(N)c2ncn([C@@H]3SC[C@@H](O)[C@H]3O)c2n1 [Compound 4m] | 16.2 ± 8.4% |  |  |  |
|  | CCCCC#Cc1nc(N)c2ncn([C@@H]3SCC(O)C3O)c2n1 (stereo in doubt) [Compound 4g, (−)-(2R,3S,4R)-2-(6-Amino-2-(hex-1-ynyl)-9H-purin-9-yl)tetrahydrothiophene-3,4-diol] | 39 ± 10% |  | full agonist | ~10 µM |
| 520 fold | CCCCC#Cc1nc(NCc2cccc(Cl)c2)c2ncn([C@@H]3SCC(O)C3O)c2n1 (stereo in doubt) [Compound 4i, (−)-(2R,3S,4R)-2-(6-(3-Chlorobenzylamino)-2-(hex-1-ynyl)-9H-purin-9-yl)tetrahydrothiophene-3,4-diol] |  |  |  |  |
